Measured values reported in ChEMBL document CHEMBL1156544, “Bioactive brominated metabolites from the red sea sponge Suberea mollis” (2008).
The source made the active and inactive calls. No cut-off for these calls is given here.

Columns and labels:
Pseudomonas aeruginosa [1] = test: Antibacterial activity against Pseudomonas aeruginosa ATCC 9027 assessed as inhibition zone diameter after 24 hrs by agar diffusion method; format: functional
Staphylococcus aureus [2] = test: Antibacterial activity against Staphylococcus aureus ATCC 6538P assessed as inhibition zone diameter after 24 hrs by agar diffusion method; format: functional
Klebsiella pneumoniae [3] = test: Antibacterial activity against Klebsiella pneumoniae ATCC 10032 assessed as inhibition zone diameter after 24 hrs by agar diffusion method; format: functional
[4] = test system: Radical scavenging activity; test: Antioxidant activity assessed as DPPH radical scavenging activity at 6 ug; format: functional
Klebsiella pneumoniae [5] = test: Antibacterial activity against Klebsiella pneumoniae ATCC 10032 assessed as inhibition zone diameter at 30 ug/disk after 24 hrs by agar diffusion method; format: functional; details: ATCC 10032, 24 h, read-out: IZ
Staphylococcus aureus [6] = test: Antibacterial activity against Staphylococcus aureus ATCC 6538P assessed as inhibition zone diameter at 30 ug/disk after 24 hrs by agar diffusion method; format: functional; details: read-out: IZ
Pseudomonas aeruginosa [7] = test: Antibacterial activity against Pseudomonas aeruginosa ATCC 9027 assessed as inhibition zone diameter at 30 ug/disk after 24 hrs by agar diffusion method; format: functional; details: ATCC 9027, 24 h, read-out: IZ
Staphylococcus aureus [8] = test: Antibacterial activity against Staphylococcus aureus ATCC 6538P assessed as inhibition zone diameter at 5 ug/disk after 24 hrs by agar diffusion method; format: functional, organism-based
Pseudomonas aeruginosa [9] = test: microbe, parasite or virus in culture; details: ATCC 9027, 24 h, read-out: IZ
Description: Antibacterial activity against Pseudomonas aeruginosa ATCC 9027 assessed as inhibition zone diameter at 5 ug/disk after 24 hrs by agar diffusion method

Klebsiella pneumoniae [10] = test: microbe, parasite or virus in culture; details: ATCC 10032, 24 h, read-out: IZ
Description: Antibacterial activity against Klebsiella pneumoniae ATCC 10032 assessed as inhibition zone diameter at 5 ug/disk after 24 hrs by agar diffusion method

Klebsiella pneumoniae [11] = test: Antibacterial activity against Klebsiella pneumoniae ATCC 10032 assessed as inhibition zone diameter at 15 ug/disk after 24 hrs by agar diffusion method; format: functional, organism-based
Staphylococcus aureus [12] = test: Antibacterial activity against Staphylococcus aureus ATCC 6538P assessed as inhibition zone diameter at 15 ug/disk after 24 hrs by agar diffusion method; format: functional; details: read-out: IZ
Pseudomonas aeruginosa [13] = test: Antibacterial activity against Pseudomonas aeruginosa ATCC 9027 assessed as inhibition zone diameter at 15 ug/disk after 24 hrs by agar diffusion method; format: functional, organism-based

**Q.** Which results are given for `COC(=O)Cc1cc(Br)c(O)c(Br)c1O` [SUBEREAPHENOL B]?
**A.** Activity (Pseudomonas aeruginosa [1]): inactive; inhibition zone (IZ) (Staphylococcus aureus [2]): 5 mm; Activity (Klebsiella pneumoniae [3]): inactive; Activity [4]: Active

**Q.** With `COC1=C(Br)[C@H](O)[C@@]2(C=C1Br)CC(C(=O)NCCCCNC(=O)C1=NO[C@]3(C=C(Br)C(OC)=C(Br)[C@@H]3O)C1)=NO2` [AEROTHIONIN] as the molecule, how does the Activity (Pseudomonas aeruginosa [1]) read?
**A.** inactive

**Q.** And the “inhibition zone (IZ)” value (Staphylococcus aureus [2])?
**A.** 5 mm

**Q.** And the “inhibition zone (IZ)” value (Klebsiella pneumoniae [3])?
**A.** 3 mm

**Q.** `COC1=C(Br)[C@@H]2OC(=O)C[C@]2(O)C=C1Br` was tested. Which Activity (Pseudomonas aeruginosa [1]) did it give?
**A.** inactive

**Q.** And the “inhibition zone (IZ)” value (Staphylococcus aureus [2])?
**A.** 5 mm

**Q.** What about the Activity (Klebsiella pneumoniae [3]) of the same molecule?
**A.** inactive

**Q.** Which results are given for `O=C(N[C@H](CO)[C@H](O)c1ccc([N+](=O)[O-])cc1)C(Cl)Cl` [CHLORAMPHENICOL]?
**A.** zone of inhibition at 30 µg/disc (Klebsiella pneumoniae [5]): 10 mm; zone of inhibition at 30 µg/disc (Staphylococcus aureus [6]): 9 mm; zone of inhibition at 30 µg/disc (Pseudomonas aeruginosa [7]): 7 mm

**Q.** With `CCOC(=O)NCCCCNC(=O)C1=NO[C@]2(C=C(Br)C(OC)=C(Br)[C@@H]2O)C1` [SUBEREAMOLLINE A] as the molecule, how does the Activity (Pseudomonas aeruginosa [1]) read?
**A.** inactive

**Q.** And the “inhibition zone (IZ)” value (Staphylococcus aureus [2])?
**A.** 3 mm

**Q.** What about the Activity (Klebsiella pneumoniae [3]) of the same molecule?
**A.** inactive

**Q.** Which results are given for `COC1=C(Br)[C@H](O)[C@@]2(C=C1Br)CC(C(=O)NCCCOc1c(Br)cc(CCNC(=O)C3=NO[C@]4(C=C(Br)C(OC)=C(Br)[C@@H]4O)C3)cc1Br)=NO2`?
**A.** Activity (Pseudomonas aeruginosa [1]): inactive; Activity (Staphylococcus aureus [2]): inactive; Activity (Klebsiella pneumoniae [3]): inactive

**Q.** `O=C(O)c1cn(C2CC2)c2cc(N3CCNCC3)c(F)cc2c1=O` [CIPROFLOXACIN] was tested. Which Activity (Staphylococcus aureus [8]) did it give?
**A.** inactive

**Q.** What about the zone of inhibition at 5 µg/disc (Pseudomonas aeruginosa [9]) of the same molecule?
**A.** 2 mm

**Q.** And the zone of inhibition at 5 µg/disc (Klebsiella pneumoniae [10])?
**A.** 8 mm

**Q.** With `CCOC(=O)Cc1cc(Br)c(O)c(Br)c1O` as the molecule, how does the Activity [4] read?
**A.** Active

**Q.** How did the “inhibition zone (IZ)” value (Pseudomonas aeruginosa [1]) turn out when `COC1=C(Br)[C@H](O)[C@](O)(CC#N)C=C1Br` was run?
**A.** 11 mm

**Q.** What about the “inhibition zone (IZ)” value (Staphylococcus aureus [2]) of the same molecule?
**A.** 9 mm

**Q.** And the “inhibition zone (IZ)” value (Klebsiella pneumoniae [3])?
**A.** 7 mm

**Q.** What does the source list for `CC[C@H]1OC(=O)[C@H](C)[C@@H](O[C@H]2C[C@@](C)(OC)[C@@H](O)[C@H](C)O2)[C@H](C)[C@@H](O[C@@H]2O[C@H](C)C[C@H](N(C)C)[C@H]2O)[C@](C)(O)C[C@@H](C)C(=O)[C@H](C)[C@@H](O)[C@]1(C)O` [ERYTHROMYCIN]?
**A.** Activity (Klebsiella pneumoniae [11]): inactive; zone of inhibition at 15 µg/disc (Staphylococcus aureus [12]): 8 mm; Activity (Pseudomonas aeruginosa [13]): inactive

**Q.** For `COC1=C(Br)[C@H](O)[C@@]2(C=C1Br)CC(C(=O)NCCCCCNC(=O)C1=NO[C@]3(C=C(Br)C(OC)=C(Br)[C@@H]3O)C1)=NO2` [HOMOAEROTHIONIN], which Activity (Pseudomonas aeruginosa [1]) is on record?
**A.** inactive

**Q.** What about the “inhibition zone (IZ)” value (Staphylococcus aureus [2]) of the same molecule?
**A.** 3 mm

**Q.** What about the Activity (Klebsiella pneumoniae [3]) of the same molecule?
**A.** inactive
